# Source: PubChem BioAssay (NCI)
#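 Step 1: Grow cells in 96-well plates. Step 2: Expose to compound for 48 hours at 5 concentrations. Step 3: Interpolate endpoints linearly; if unreached, use highest concentration. TGI is the concentration that stops growth completely.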
# Columns and labels:
# Experiment in all cases: NCI-60 cell line screen, 48 h
# 786-0 renal = test system: 786-0 renal
# A498 renal = test system: A498 renal
# A549 NSCLC = test system: A549 NSCLC
# ACHN renal = test system: ACHN renal
# BT-549 breast = test system: BT-549 breast
# CAKI-1 renal = test system: CAKI-1 renal
# CCRF-CEM leukemia = test system: CCRF-CEM leukemia
# COLO 205 colon = test system: COLO 205 colon
# DU-145 prostate = test system: DU-145 prostate
# EKVX NSCLC = test system: EKVX NSCLC
# HCC-2998 colon = test system: HCC-2998 colon
# HCT-116 colon = test system: HCT-116 colon
# HCT-15 colon = test system: HCT-15 colon
# HL-60(TB) leukemia = test system: HL-60(TB) leukemia
# HOP-62 NSCLC = test system: HOP-62 NSCLC
# HOP-92 NSCLC = test system: HOP-92 NSCLC
# HS 578T breast = test system: HS 578T breast
# HT29 colon = test system: HT29 colon
# IGROV1 ovarian = test system: IGROV1 ovarian
# K-562 leukemia = test system: K-562 leukemia
# KM12 colon = test system: KM12 colon
# LOX IMVI melanoma = test system: LOX IMVI melanoma
# M14 melanoma = test system: M14 melanoma
# MALME-3M melanoma = test system: MALME-3M melanoma
# MCF7 breast = test system: MCF7 breast
# MDA-MB-231 breast = test system: MDA-MB-231 breast
# MDA-MB-435 = test system: MDA-MB-435
# MDA-N = test system: MDA-N
# MOLT-4 leukemia = test system: MOLT-4 leukemia
# NCI-H226 lung = test system: NCI-H226 lung
# NCI-H23 lung = test system: NCI-H23 lung
# NCI-H460 lung = test system: NCI-H460 lung
# NCI-H522 lung = test system: NCI-H522 lung
# NCI/ADR-RES ovarian = test system: NCI/ADR-RES ovarian
# OVCAR-3 ovarian = test system: OVCAR-3 ovarian
# OVCAR-4 ovarian = test system: OVCAR-4 ovarian
# OVCAR-5 ovarian = test system: OVCAR-5 ovarian
# OVCAR-8 ovarian = test system: OVCAR-8 ovarian
# PC-3 prostate = test system: PC-3 prostate
# RPMI-8226 leukemia = test system: RPMI-8226 leukemia
# RXF 393 renal = test system: RXF 393 renal
# SF-268 CNS = test system: SF-268 CNS
# SF-295 CNS = test system: SF-295 CNS
# SF-539 CNS = test system: SF-539 CNS
# SK-MEL-2 melanoma = test system: SK-MEL-2 melanoma
# SK-MEL-28 melanoma = test system: SK-MEL-28 melanoma
# SK-MEL-5 melanoma = test system: SK-MEL-5 melanoma
# SK-OV-3 ovarian = test system: SK-OV-3 ovarian
# SN12C renal = test system: SN12C renal
# SNB-19 CNS = test system: SNB-19 CNS
# SNB-75 CNS = test system: SNB-75 CNS
# SR leukemia = test system: SR leukemia
# SW-620 colon = test system: SW-620 colon
# T-47D breast = test system: T-47D breast
# TK-10 renal = test system: TK-10 renal
# U251 CNS = test system: U251 CNS
# UACC-257 melanoma = test system: UACC-257 melanoma
# UACC-62 melanoma = test system: UACC-62 melanoma
# UO-31 renal = test system: UO-31 renal
compound,measurement,setting,value
CC(C)(C)NC(=O)/C(=C\Sc1ccccc1)c1ccccc1,TGI,786-0 renal,> 100 µM
same,TGI,A498 renal,> 100 µM
same,TGI,A549 NSCLC,> 100 µM
same,TGI,ACHN renal,> 100 µM
same,TGI,BT-549 breast,> 100 µM
same,TGI,CAKI-1 renal,> 100 µM
same,TGI,CCRF-CEM leukemia,> 100 µM
same,TGI,COLO 205 colon,> 100 µM
same,TGI,DU-145 prostate,> 100 µM
same,TGI,EKVX NSCLC,> 100 µM
same,TGI,HCC-2998 colon,> 100 µM
same,TGI,HCT-116 colon,> 100 µM
same,TGI,HCT-15 colon,> 100 µM
same,TGI,HL-60(TB) leukemia,> 100 µM
same,TGI,HOP-62 NSCLC,> 100 µM
same,TGI,HOP-92 NSCLC,> 42.4 µM
same,TGI,HS 578T breast,> 100 µM
same,TGI,HT29 colon,> 100 µM
same,TGI,IGROV1 ovarian,> 100 µM
same,TGI,K-562 leukemia,> 100 µM
same,TGI,KM12 colon,> 100 µM
same,TGI,LOX IMVI melanoma,> 79.4 µM
same,TGI,M14 melanoma,> 100 µM
same,TGI,MALME-3M melanoma,> 100 µM
same,TGI,MCF7 breast,> 100 µM
same,TGI,MDA-MB-231 breast,> 100 µM
same,TGI,MDA-MB-435,> 100 µM
same,TGI,MDA-N,> 100 µM
same,TGI,MOLT-4 leukemia,> 100 µM
same,TGI,NCI-H226 lung,> 100 µM
same,TGI,NCI-H23 lung,> 100 µM
same,TGI,NCI-H460 lung,> 100 µM
same,TGI,NCI-H522 lung,> 52.1 µM
same,TGI,NCI/ADR-RES ovarian,> 100 µM
same,TGI,OVCAR-3 ovarian,> 100 µM
same,TGI,OVCAR-4 ovarian,> 100 µM
same,TGI,OVCAR-5 ovarian,> 100 µM
same,TGI,OVCAR-8 ovarian,> 100 µM
same,TGI,PC-3 prostate,> 100 µM
same,TGI,RPMI-8226 leukemia,> 100 µM
same,TGI,RXF 393 renal,> 100 µM
same,TGI,SF-268 CNS,> 87.8 µM
same,TGI,SF-295 CNS,> 100 µM
same,TGI,SF-539 CNS,> 100 µM
same,TGI,SK-MEL-2 melanoma,> 100 µM
same,TGI,SK-MEL-28 melanoma,> 100 µM
same,TGI,SK-MEL-5 melanoma,> 100 µM
same,TGI,SK-OV-3 ovarian,> 100 µM
same,TGI,SN12C renal,> 100 µM
same,TGI,SNB-19 CNS,> 100 µM
same,TGI,SNB-75 CNS,> 100 µM
same,TGI,SR leukemia,> 100 µM
same,TGI,SW-620 colon,> 100 µM
same,TGI,T-47D breast,> 100 µM
same,TGI,TK-10 renal,> 100 µM
same,TGI,U251 CNS,> 100 µM
same,TGI,UACC-257 melanoma,> 100 µM
same,TGI,UACC-62 melanoma,> 100 µM
same,TGI,UO-31 renal,> 100 µM
Cc1[nH]c2ccccc2c1/C=N/NC(=O)c1cccc(I)c1,TGI,786-0 renal,45.5 µM
same,TGI,A498 renal,34.6 µM
same,TGI,A549 NSCLC,85.6 µM
same,TGI,ACHN renal,91.3 µM
same,TGI,BT-549 breast,61.5 µM
same,TGI,CAKI-1 renal,50.4 µM
same,TGI,CCRF-CEM leukemia,63.2 µM
same,TGI,COLO 205 colon,27 µM
same,TGI,DU-145 prostate,92.5 µM
same,TGI,EKVX NSCLC,41.9 µM
same,TGI,HCC-2998 colon,36.1 µM
same,TGI,HCT-116 colon,51.4 µM
same,TGI,HCT-15 colon,84.5 µM
same,TGI,HL-60(TB) leukemia,57.5 µM
same,TGI,HOP-62 NSCLC,41 µM
same,TGI,HOP-92 NSCLC,51.4 µM
same,TGI,HS 578T breast,89.8 µM
same,TGI,HT29 colon,63.3 µM
same,TGI,IGROV1 ovarian,75.3 µM
same,TGI,K-562 leukemia,78.7 µM
same,TGI,KM12 colon,37.1 µM
same,TGI,LOX IMVI melanoma,31.2 µM
same,TGI,M14 melanoma,30 µM
same,TGI,MALME-3M melanoma,65.6 µM
same,TGI,MCF7 breast,61.7 µM
same,TGI,MDA-MB-231 breast,57.7 µM
same,TGI,MDA-MB-435,35.7 µM
same,TGI,MDA-N,52.4 µM
same,TGI,MOLT-4 leukemia,60.9 µM
same,TGI,NCI-H23 lung,53.5 µM
same,TGI,NCI-H460 lung,36.1 µM
same,TGI,NCI-H522 lung,63.7 µM
same,TGI,NCI/ADR-RES ovarian,56 µM
same,TGI,OVCAR-3 ovarian,41.2 µM
same,TGI,OVCAR-4 ovarian,43.2 µM
same,TGI,OVCAR-5 ovarian,70.4 µM
same,TGI,OVCAR-8 ovarian,> 100 µM
same,TGI,PC-3 prostate,66 µM
same,TGI,RPMI-8226 leukemia,48.4 µM
same,TGI,RXF 393 renal,36.3 µM
same,TGI,SF-268 CNS,> 100 µM
same,TGI,SF-295 CNS,43.3 µM
same,TGI,SF-539 CNS,38.2 µM
same,TGI,SK-MEL-2 melanoma,39.2 µM
same,TGI,SK-MEL-28 melanoma,76.3 µM
same,TGI,SK-MEL-5 melanoma,29.1 µM
same,TGI,SK-OV-3 ovarian,93.5 µM
same,TGI,SN12C renal,> 100 µM
same,TGI,SNB-19 CNS,> 100 µM
same,TGI,SNB-75 CNS,54.5 µM
same,TGI,SR leukemia,44.5 µM
same,TGI,SW-620 colon,> 100 µM
same,TGI,T-47D breast,52.9 µM
same,TGI,TK-10 renal,87.7 µM
same,TGI,U251 CNS,57 µM
same,TGI,UACC-257 melanoma,54.5 µM
same,TGI,UACC-62 melanoma,34.5 µM
same,TGI,UO-31 renal,61.6 µM
